Results from publication PMC9361549, “High-affinity SOAT1 ligands remodeled cholesterol metabolism program to inhibit tumor growth” (BMC Medicine, 2022).

T1: SOAT1 (Homo sapiens, UniProt P35610)
T1 sequence (P35610 1-550): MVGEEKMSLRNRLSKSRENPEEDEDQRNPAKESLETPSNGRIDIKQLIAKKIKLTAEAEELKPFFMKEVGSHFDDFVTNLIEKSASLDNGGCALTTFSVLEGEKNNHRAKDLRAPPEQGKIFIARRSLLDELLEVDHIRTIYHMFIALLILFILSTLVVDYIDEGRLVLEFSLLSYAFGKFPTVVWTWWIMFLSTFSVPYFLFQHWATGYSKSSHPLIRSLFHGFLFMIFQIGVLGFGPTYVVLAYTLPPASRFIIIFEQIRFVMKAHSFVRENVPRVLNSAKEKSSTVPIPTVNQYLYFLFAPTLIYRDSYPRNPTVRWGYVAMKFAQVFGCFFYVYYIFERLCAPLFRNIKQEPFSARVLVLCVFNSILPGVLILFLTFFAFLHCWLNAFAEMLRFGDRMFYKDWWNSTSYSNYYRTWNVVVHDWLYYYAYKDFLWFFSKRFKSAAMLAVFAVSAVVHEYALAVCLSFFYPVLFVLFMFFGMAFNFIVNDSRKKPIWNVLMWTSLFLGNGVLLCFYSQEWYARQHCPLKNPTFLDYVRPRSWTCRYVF


Columns and labels:
[1] = target: T1, SOAT1; experiment: SPR (Biacore T200, CM5 chip, immobilised SOAT1); type: binding; settings: PBS running buffer with 5% DMSO; 0.0195 nM to 20 μM
[2] = target: T1, SOAT1; experiment: SPR single-concentration screen (Biacore T200, CM5 chip, immobilised SOAT1); type: binding; settings: 100 nmol/L compound; PBS with 5% DMSO; positive control
[3] = target: the molecule itself; experiment: SEC; Superdex 200 10/300 GL in 25 mM Tris pH 8.0, 150 mM NaCl, 0.02% GDN, after nickel affinity purification; fractions checked by SDS-PAGE

KD [1]	Molecule	SPR single-concentration screen (Biacore T200, CM5 chip, immobilised SOAT1) [2]	other results
2.02E^−7 M	Cc1cn(-c2cc(NC(=O)c3ccc(C)c(Nc4nccc(-c5cccnc5)n4)c3)cc(C(F)(F)F)c2)cn1 [nilotinib]		
	CC(C)c1cc(C(C)C)c(CC(=O)NS(=O)(=O)Oc2c(C(C)C)cccc2C(C)C)c(C(C)C)c1 [avasimibe]	including three positive controls: avasimibe, nevanimibe, and CI-976	
	CCCCCCCCCCC(C)(C)C(=O)Nc1c(OC)cc(OC)cc1OC [CI-976]	including three positive controls: avasimibe, nevanimibe, and CI-976	
7.19 E^−7 M	CN(C)CC[C@H](CSc1ccccc1)Nc1ccc(S(=O)(=O)NC(=O)c2ccc(N3CCN(Cc4ccccc4-c4ccc(Cl)cc4)CC3)cc2)cc1[N+](=O)[O-] [ABT-737]		
3.91 E^−6 M	Cc1cc(C)c2c(c1)[C@@H](N(Cc1cc(C(F)(F)F)cc(C(F)(F)F)c1)c1nnn(C)n1)CCCN2C[C@H]1CC[C@H](C(=O)O)CC1 [evacetrapib]		
	sterol O-acyltransferase 1 (SOAT1), human, with a carboxy-terminal 6xHis-tag (enzyme, UniProt P35610-1 1-550, looked up, sterol O-acyltransferase 1 (SOAT1), human; NCBI ID 6646) cloned into pCAG; no removal of the His-tag is described; also called SOAT1 protein) MVGEEKMSLRNRLSKSRENPEEDEDQRNPAKESLETPSNGRIDIKQLIAKKIKLTAEAEELKPFFMKEVGSHFDDFVTNLIEKSASLDNGGCALTTFSVLEGEKNNHRAKDLRAPPEQGKIFIARRSLLDELLEVDHIRTIYHMFIALLILFILSTLVVDYIDEGRLVLEFSLLSYAFGKFPTVVWTWWIMFLSTFSVPYFLFQHWATGYSKSSHPLIRSLFHGFLFMIFQIGVLGFGPTYVVLAYTLPPASRFIIIFEQIRFVMKAHSFVRENVPRVLNSAKEKSSTVPIPTVNQYLYFLFAPTLIYRDSYPRNPTVRWGYVAMKFAQVFGCFFYVYYIFERLCAPLFRNIKQEPFSARVLVLCVFNSILPGVLILFLTFFAFLHCWLNAFAEMLRFGDRMFYKDWWNSTSYSNYYRTWNVVVHDWLYYYAYKDFLWFFSKRFKSAAMLAVFAVSAVVHEYALAVCLSFFYPVLFVLFMFFGMAFNFIVNDSRKKPIWNVLMWTSLFLGNGVLLCFYSQEWYARQHCPLKNPTFLDYVRPRSWTCRYVF		stoichiometry N [3]: 2
